Read-outs that look alike come from different tables or passages of the source. Non-standard residues stand in square brackets, D forms with d. Residues, ends and D or L forms follow the SMILES beside them. *: point of attachment. dMet(O) = CS(=O)CC[C@@H](N)C(=O)O; Lauroyl = CCCCCCCCCCCC(=O)*; Octanoyl = CCCCCCCC(=O)*; NH(CH2)4NH2 = NCCCCN*
Assays:
PvdQ-like acylase GdnD = experiment: Deacylation by acylase GdnD (cell lysate, LC-MS); assay type: biochemical, Schlegelella brevitalea DSM 7029; conditions: 100 μL E. coli cell lysate with GdnD, 5 μL 10 mM substrate, 30 °C; 7 and 8: 4 h, 16 h, 27 h; other substrates 16 h; boiled lysate as control
Experimental: The hydrolysis function of PvdQ-like acylase GdnD was tested. GdnD is predicted to be a periplasmic protein by PSORTb[13]. The collected pellet from 50 mL LB dissolved with 8 mL buffer C (50 mM Tris, 300 mM NaCl, 5 mM MgCl2, pH 7.6), and lysed by cell disruption. Then, one hundred microliter of the cell lysate was incubated with 5 μL 10 mM substrates 7 and 8 for 4 h, 16 h, and 27 h at 30 °C. The negative control was boiled cell lysate. The other substrates (13, 14, 15, 16, and 17) incubated with the cell lysate dealt for 16 h at 30 °C. Then, the reaction was stopped by the addition of the 100 μL MeOH, and the final mixture was checked by LC‒MS analysis (5%‒95% ACN in 15 min) according to the above condition.

[1] = system: S. brevitalea DSM 7029 wild type; experiment: Biofilm formation of DSM 7029 wild type with compounds (crystal violet); assay type: cell-based, Schlegelella brevitalea DSM 7029; conditions: relative to wild type treated with H2O = 100%; crystal violet 0.1%, OD600; mean of n = 3
Experimental: The growth curve was tested by Bioscreen C (Labsystems, Finland) as follow. Overnight culture was inoculated into 400 μL fresh CYMG medium in the ratio of 1:100 (the concentration of compounds was 0.1 μg/μL) and shook in normal speed. The OD600 value was gained in every hour for 42 h in total. Biofilm formation was measured at 18 h and 36 h respectively, as reported previously. In brief, the free-floating cells were removed, and the microtitre plate was washed with PBS (pH 7.4) after incubation for 18 h and 36 h. The biofilm was stained by adding 200 µL of crystal violet (0.1%) solution. Crystal violet solution was removed after 15 min and 200 µL of ethanol (95%) was added. The absorbance at OD600 was read using a microplate reader (Infinite M200, Tecan, Männedorf, Switzerland). Meanwhile, free-floating cells were used to test the secretion of pigment. The bacteria were removed and the supernatant was measured at OD600.

[2] = system: human breast adenocarcinoma cells MDA-MB-231; experiment: cells; assay type: cell-based
Source text: (§1) The two human acute lymphoblastic leukemia cells K562 and Kasumi, two human breast adenocarcinoma cells MCF7 and MDA-MB-231, human hepatoma cell HepG-2, human lung adenocarcinoma cell A549, human gastric cancer cell SGC-7901, human colon cancer cell HCT-116, human ovarian cancer cell line SKOV3, or human lung epithelial normal cell 2B were obtained from Beyotime Biotechnology and utilized to test the cytotoxicity of compounds by MTT assays as previous study. The anti-inflammatory effect of the compounds was detected by the influence on the increase in the level of nitric oxide caused by lipopolysaccharide (LPS) based on the classic Griess method. RAW 264.7 cells (Shanghai Institutes for Biological Science) were seeded in 96-well plates and incubated for 24 h. Then, cells were treated with compounds 29, 29a, 31, and 31a (0-80 μM) for 30 min, followed by co-treatment with LPS ([…]) for another 24 h. The Nitric Oxide assay kit with Griess reagents (Beyotime, Lot: S0021, Shanghai, China) was used to examine cellular supernatant nitrite accumulation, which represents cellular NO levels. The OD value of 540 nm absorbance was detected with a microplate reader. Their authentication in the laboratory was performed regularly based on morphology and gene/protein expression. The tested micro-organisms including Gram-negative bacteria E. coli ATCC 35218 and Pseudomonas aeruginosa ATCC 27853, and Gram-positive bacteria Staphylococcus aureus ATCC 29213 and B. subtilis ATCC 6633, and fungi Candida albicans, Rhizoctonia solani and Aspergillus fumigatus were treated with different concentrations of compounds (1 μM, 10 μM, 100 μM) using Bauer-Kirby disk diffusion method to evaluate the antimicrobial activities.

[3] = system: human lung epithelial normal cell 2B; experiment: cells; assay type: cell-based
Source text: as §1

[4] = system: human hepatoma cell HepG-2; experiment: cells; assay type: cell-based
Source text: as §1

[5] = system: human lung adenocarcinoma cell A549; experiment: MTT cytotoxicity assay, A549; assay type: cell-based
Source text: as §1

[6] = system: human ovarian cancer cell line SKOV3; experiment: cells; assay type: cell-based
Source text: as §1

tumor lines = experiment: MTT cytotoxicity assay, statements on the whole panel; assay type: cell-based, human
Source text: as §1

[7] = system: human acute lymphoblastic leukemia cells K562; experiment: cells; assay type: cell-based; conditions: Homo sapiens, K562; MTT assay; Supplementary Table 11; read-out: IC50 K562
Source text: as §1

[8] = system: human breast adenocarcinoma cells MCF7; experiment: cells; assay type: cell-based; conditions: Homo sapiens, MCF7; MTT assay; Supplementary Table 11; read-out: IC50 MCF-7
Source text: as §1

[9] = system: human colon cancer cell HCT-116; experiment: cells; assay type: cell-based; conditions: Homo sapiens, HCT-116; MTT assay; Supplementary Table 11; read-out: IC50 HCT116
Source text: as §1

[10] = system: human gastric cancer cell SGC-7901; experiment: cells; assay type: cell-based; conditions: Homo sapiens, SGC-7901; MTT assay; Supplementary Table 11; read-out: IC50 SGC-7901
Source text: as §1

human cells Kasumi = experiment: MTT cytotoxicity assay, Kasumi; assay type: cell-based; conditions: Homo sapiens; MTT assay; Supplementary Table 11; read-out: IC50 Kasumi
Source text: as §1

[11] = system: C13 domain of GdnB fragments and mutants; experiment: Condensation of T12-linked L-Ala with Put or other diamines (yield of 24a-27a, LC-MS); assay type: biochemical, Schlegelella brevitalea DSM 7029; conditions: Average of n = 3
Experimental: In vitro assays for the different enzymes of the C-terminal multi-domains were performed. Reaction buffer contained 80 μM protein, 3 μM Sfp from B. subtilis, 200 μM CoA, 2.5 mM L-Ala and 5 mM ATP was incubated at 30 °C for 30 min. Then, 2.5 mM diamines or polyamines (i.e. putrescine, 1,7-diaminoheptane, 1,6-diaminohexane, 1,5-diaminopentane, 1,2-diaminocyclohexane, spermine, and spermidine, respectively) was added to make final volume of 200 μL. The reaction was further incubated at 30 °C for 1 h or 4 h. Triple amount of cold methanol was added to quench the reaction, and the supernatant was dried by SpeedVac after removed the precipitate at 10,000 × g for 8 min. The reaction mixture was dissolved with 200 μL ddH2O, and then the mixture was derived with D-FDAA according to the procedure of the above Marfey’s analysis. The final reaction mixture was suspended using 100 μL 2 M HCl, which subsequently was dried by SpeedVac. Finally, the mixture dissolved with 100 μL MeOH to detect the target products (24a, 25a, 26a, and 27a) using LC‒MS analysis (5%‒95% ACN in 15 min).

Compound: CCCCCCCCCCCC(=O)N[C@H](CC[S+](C)[O-])C(=O)N[C@H](CC(N)=O)C(=O)N1CCC[C@H]1C(=O)N[C@H](C(=O)N[C@H](Cc1ccccc1)C(=O)N1CCC[C@H]1C(=O)N[C@@H](Cc1c[nH]c2ccccc12)C(=O)N[C@@H](C(=O)N[C@@H](C)C(=O)N[C@H](C)C(=O)N[C@@H](CO)C(=O)N[C@@H](C)C(=O)NCCCCN)C(C)C)C(C)C (stereo partly shown) [Compound 8, Glidonin H] (Lauroyl-[dMet(O)][dN]PV[dF]PW[dV]A[dA]SA-{NH(CH2)4NH2})
- deacylation by GdnD, nonacylated product by LC-MS (PvdQ-like acylase GdnD): nonacylated products 1 and 2 were detected
- biofilm formation 18 h, Average [1]: 153.143%
- biofilm formation 36 h, Average [1]: 147.847%
- IC50 ([2]; 24 h): > 20 µM
- IC50 ([3]; 24 h): > 20 µM
- IC50 ([4]; 24 h): > 20 µM
- IC50 ([5]; 24 h): > 20 µM

Compound: CCCCCCCC(=O)N[C@@H](CC(C)C)C(=O)N[C@H](C(=O)N[C@@H](Cc1ccc(O)cc1)C(=O)N[C@H](C)C(=O)N[C@@H](C)C(=O)N[C@H](C)C(=O)N[C@H](C(=O)NCCCCN)C(C)C)[C@@H](C)O [Compound 29] (Octanoyl-LTY[dA]A[dA]V-{NH(CH2)4NH2})
- IC50 ([2]; 24 h): 110 ± 2.6 µM
- IC50 ([3]; 24 h): 102.4 ± 0.25 µM
- IC50 ([6]; 24 h): 81.4 ± 1.02 µM
- IC50 ([4]; 24 h): 265.5 ± 2.43 µM
- IC50 ([5]; 24 h): 39.92 ± 0.15 µM
- cytotoxic / antitumor activity in words (tumor lines): higher anti-inflammatory and antitumor activities than 29a and 31a
- IC50 (tumor lines; 24 h): > 40 µM

Compound: CCCCCCCC(=O)N[C@H](C(=O)N[C@@H](Cc1ccccc1)C(=O)N[C@@H](CCC(=O)O)C(=O)N[C@H](C(=O)N[C@@H](C)C(=O)O)[C@@H](C)CC)C(C)C [Compound 31a] (Octanoyl-VFEIA-OH; C-terminus assumed)
- IC50 ([2]; 24 h): 200.5 ± 0.07 µM
- IC50 ([3]; 24 h): 92.26 ± 0.03 µM
- IC50 SKOV3 ([6]; MTT assay, Supplementary Table 12, n.s. indicates negative significance): n.s.
- IC50 ([4]; 24 h): 94.29 ± 0.19 µM
- IC50 ([5]; 24 h): 453.4 ± 0.68 µM

Compound: C14-Rhizomide A [Compound 17, reference compound]
- deacylation by GdnD, nonacylated product by LC-MS (PvdQ-like acylase GdnD): could remove myristoyl

Compound: COc1cccc2c1C(=O)c1c(O)c3c(c(O)c1C2=O)C[C@@](O)(C(=O)CO)C[C@@H]3O[C@H]1C[C@H](N)[C@H](O)[C@H](C)O1 [doxorubicin, reference compound]
- IC50 [7]: 790 ± 340 nM
- IC50 [8]: 2600 ± 340 nM
- IC50 ([2]; Homo sapiens, MDA-MB-231, MTT assay, Supplementary Table 11, read-out: IC50 MDA-MB-231): 0.63 ± 0.07 µM
- IC50 ([2]; Homo sapiens, MDA-MB-231, MTT assay, Supplementary Table 12, n.s. indicates negative significance, read-out: IC50 MDA-MB-231): 0.91 ± 0.05 µM
- IC50 [9]: 590 ± 40 nM
- IC50 ([3]; Homo sapiens, MTT assay, normal cell, Supplementary Table 11, read-out: IC50 2B): 1.32 ± 0.11 µM
- IC50 ([3]; Homo sapiens, MTT assay, normal cell, Supplementary Table 12, read-out: IC50 2B): 1.34 ± 0.09 µM
- IC50 ([6]; Homo sapiens, SK-OV-3, MTT assay, Supplementary Table 12, n.s. indicates negative significance, read-out: IC50 SKOV3): 1.29 ± 0.01 µM
- IC50 [10]: 140 nM
- IC50 ([4]; Homo sapiens, HepG2, MTT assay, Supplementary Table 11, read-out: IC50 HepG2): 3.21 ± 0.67 µM
- IC50 ([4]; Homo sapiens, HepG2, MTT assay, Supplementary Table 12, read-out: IC50 HepG-2): 0.23 ± 0.02 µM
- IC50 ([5]; Homo sapiens, A549, MTT assay, Supplementary Table 11, read-out: IC50 A549): 0.82 ± 0.25 µM
- IC50 ([5]; Homo sapiens, A549, MTT assay, Supplementary Table 12, read-out: IC50 A549): 0.73 ± 0.05 µM
- IC50 (human cells Kasumi): 420 ± 100 nM

Compound: CC(N)C(=O)NCCCCCNc1cc(NC(C)C(N)=O)c([N+](=O)[O-])cc1[N+](=O)[O-] (stereo not shown) [Compound 25a]
- L-Ala condensing with Put, 1,5-diaminopentane, 1,6-diaminohexane, and 1,7-diaminoheptane (Relative Yield of product) ([11]; protein A12T12): 100
- L-Ala condensing with Put, 1,5-diaminopentane, 1,6-diaminohexane, and 1,7-diaminoheptane (Relative Yield of product) ([11]; protein A12T12C13A*T13): 794.339

Compound: CCCCCCCC(=O)N[C@@H](CC(C)C)C(=O)N[C@H](C(=O)N[C@@H](Cc1ccc(O)cc1)C(=O)N[C@H](C)C(=O)N[C@@H](C)C(=O)N[C@H](C)C(=O)N[C@H](C(=O)O)C(C)C)[C@@H](C)O [Compound 29a, octanoyl-L-Leu-L-Thr-L-Tyr-D-Ala-L-Ala-D-Ala-L-Val] (Octanoyl-LTY[dA]A[dA]V-OH)
- IC50 ([3]; 24 h): 269.4 ± 1.23 µM
- IC50 ([6]; 24 h): 161 ± 3.67 µM
- IC50 ([4]; 24 h): 267.5 ± 0.01 µM
- IC50 ([5]; 24 h): 82.2 ± 2.58 µM

— article PMC10587159, “Biosynthesis and engineering of the nonribosomal peptides with a C-terminal putrescine” (Nature Communications, 2023)
